Data: patent US9527807B2, “Sulfonamide derivative and use thereof” (Takeda Pharmaceutical Company Limited, priority 2011, dated 2016)
Structures can show the parent of a compound that is named as a salt.

Target: T1, AMPA receptor (human GluR1 flip/stargazin expressed in CHO-K1 cells) (Homo sapiens, UniProt P42261)
T1 construct: expressed in transfected cells; host or cells: CHO-K1
Assay: AMPA receptor function enhancing activity using calcium influx as index
Assay type: cell-based
Details: change in fluorescence level in 3 min, 100% = 3 mM glutamic acid + 300 μM cyclothiazide, 0% = 3 mM glutamic acid only
Source text: Human GluR1 flip cDNA was amplified by PCR using forward primer […] (SEQ ID NO: 1) and reverse primer […] (SEQ ID NO: 2) artificially synthesized using human brain-derived cDNA (BD Bio science) as a template. The amplified product was digested with restriction enzymes EcoRI, NotI (TAKARA SHUZO CO. LTD.), and incorporated into the same site of pcDNA3.1(+) (Invitrogen) to construct pcDNA3.1(+)/human GluR1 flip gene. Human stargazin cDNA was amplified by PCR using forward primer […] (SEQ ID NO: 3) and reverse primer. […] (SEQ ID NO: 4) artificially synthesized using human hippocampus cDNA as a template. The amplified product was digested with restriction enzymes XhoI, BamHI (TAKARA SHUZO CO. LTD.), and incorporated into the same site of pcDNA3.1(−) (Invitrogen) to construct pcDNA3.1 Zeo(−)/human stargazin gene.
(2) Construction of GluR1 Flip/Stargazin Expressing Cell
CHO-K1 cells passaged in a culture medium (Ham's F12 medium (Invitrogen) added with 10% inactivated fetal bovine serum (Morgate) and penicillin, streptomycin (Invitrogen)) were detached with 0.05% trypsin, 0.53 mM EDTA (Invitrogen) diluted with D-PBS(−). The detached cells were suspended in a culture medium, and recovered by a centrifugation operation at 1,000 rpm. The recovered cells were suspended again in D-PBS(−), and added to a 0.4 cm electroporation cuvette (BioRad). pcDNA3.1(+)/human GluR1 flip gene (5 μg) and pcDNA3.1 Zeo(−)/human stargazin gene (15 μg) were added, and the mixture was introduced into CHO-K1 cells using Gene Pulser II (BioRad) under the conditions of 950 μFd, […]. The introduced cells were cultured overnight in a culture medium and, the next day, plated in a 96 well plate at 250 cells/well using a selection medium (culture medium added with Zeocin (Invitrogen) to 250 μg/mL). Clones showing drug resistance were selected, and GluR1 flip/stargazin expressing clones were selected by an assay method using calcium influx as an index as shown below.
(3) Measurement Method of AMPA Receptor Function Enhancing Activity of Compound Using Calcium Influx as Index
CHO-K1/GluR1 flip/stargazin expressing cells were plated on a 384 well black transparent bottom plate (FMAT4307723) at 0.5×10^4 cells/well, and cultured in a 37° C., CO2 incubator (SANYO Electric Co., Ltd.) for 2 days. The medium in the cell plate was removed, and a calcium indicator (Calcium 4 Assay Kit, Molecular. Devices) containing 1.25 mM probenecid (Invitrogen) was added at 25 μL/well and the well was left standing in 37° C., CO2 incubator for 1 hr. The cell plate was set in FLITRtetra (Molecular Devices), a mixture (12.5 μL) of 9 mM glutamic acid diluted with assay buffer B (HBSS (Invitrogen), 0.1% BSA, 10 mM HEPES) and a test compound was added, and the amount of change in fluorescence level in 3 min was measured. In the definition here, the amount of change in fluorescence level of well added with glutamic acid at final concentration 3 mM and 300 μM cyclothiazide (TOCRIS) is 100%, the amount of change in fluorescence level of well added only with glutamic acid at final concentration 3 mM is 0%, and the compound activity was calculated according to the following formula. activity (%)=(X−C)/(T−C)×100 T: amount of change in fluorescence level of well added with glutamic acid at final concentration 3 mM and 300 μM cyclothiazide C: amount of change in fluorescence level of well added only with glutamic acid at final concentration 3 mM X: amount of change in fluorescence level of well added with to test compound

T1 sequence (P42261 19-906 isoform P42261-2 limits assumed): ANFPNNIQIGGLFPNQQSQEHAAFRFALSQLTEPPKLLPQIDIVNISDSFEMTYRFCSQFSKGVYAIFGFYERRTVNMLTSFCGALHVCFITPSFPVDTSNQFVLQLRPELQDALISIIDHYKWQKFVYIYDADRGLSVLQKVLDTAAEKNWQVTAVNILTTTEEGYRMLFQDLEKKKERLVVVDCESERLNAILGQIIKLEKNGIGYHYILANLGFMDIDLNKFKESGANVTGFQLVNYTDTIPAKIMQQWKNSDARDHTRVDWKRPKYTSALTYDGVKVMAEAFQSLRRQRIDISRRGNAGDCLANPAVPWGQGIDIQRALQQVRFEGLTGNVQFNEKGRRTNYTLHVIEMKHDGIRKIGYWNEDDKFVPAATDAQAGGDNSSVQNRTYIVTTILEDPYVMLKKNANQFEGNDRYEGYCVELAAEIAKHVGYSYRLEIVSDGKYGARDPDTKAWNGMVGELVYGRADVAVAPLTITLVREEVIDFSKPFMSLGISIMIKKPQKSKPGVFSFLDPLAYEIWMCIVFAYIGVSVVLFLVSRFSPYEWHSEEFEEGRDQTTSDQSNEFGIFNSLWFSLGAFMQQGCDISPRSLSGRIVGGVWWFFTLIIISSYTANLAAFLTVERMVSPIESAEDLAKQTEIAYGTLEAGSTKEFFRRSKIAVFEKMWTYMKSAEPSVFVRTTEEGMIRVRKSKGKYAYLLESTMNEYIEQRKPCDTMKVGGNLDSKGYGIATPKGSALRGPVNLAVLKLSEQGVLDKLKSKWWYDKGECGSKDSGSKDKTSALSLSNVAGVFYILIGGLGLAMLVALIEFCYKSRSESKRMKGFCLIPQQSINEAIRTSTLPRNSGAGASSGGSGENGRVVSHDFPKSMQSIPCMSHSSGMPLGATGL
T1 sequence (Q9Y698 whole entry partner): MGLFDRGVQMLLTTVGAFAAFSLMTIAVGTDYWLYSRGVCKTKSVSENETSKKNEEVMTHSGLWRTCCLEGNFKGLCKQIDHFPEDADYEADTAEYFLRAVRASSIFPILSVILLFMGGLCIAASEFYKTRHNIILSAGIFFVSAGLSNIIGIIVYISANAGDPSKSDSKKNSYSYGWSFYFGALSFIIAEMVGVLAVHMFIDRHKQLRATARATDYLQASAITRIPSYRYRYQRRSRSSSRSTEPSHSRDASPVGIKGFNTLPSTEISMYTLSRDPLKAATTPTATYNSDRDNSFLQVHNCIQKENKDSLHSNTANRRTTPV

| activity (%) | SMILES |
| --- | --- |
| 66 | Cc1nc(-c2ccc(OC[C@H]3COCC[C@@H]3NS(C)(=O)=O)cc2)cs1 (racemic) [Example 263, N-[(3RS,4SR)-3-{[4-(2-methyl-1,3-thiazol-4-yl)phenoxy]methyl}tetrahydro-2H-pyran-4-yl]methanesulfonamide] |
| 86 | CCS(=O)(=O)N[C@H]1CCCC[C@@H]1COc1ccc(C2COC2)cc1 (relative stereo) [Example 43, trans-N-{2-[(4-oxetan-3-ylphenoxy)methyl]cyclohexyl}ethanesulfonamide] |
| 99 | CCS(=O)(=O)N[C@H]1CCOC[C@@H]1COc1ccc(-n2cc(Cl)cn2)c(F)c1 (racemic) [Example 489, N-[(3RS,4SR)-3-{[4-(4-chloro-1H-pyrazol-1-yl)-3-fluorophenoxy]methyl}tetrahydro-2H-pyran-4-yl]ethanesulfonamide] |
| 93 | CCS(=O)(=O)N[C@H]1CCC(F)(F)C[C@@H]1COc1ccc(-c2cccn(C)c2=O)cc1 [Example 267, N-[(1S,2S)-4,4-difluoro-2-{[4-(1-methyl-2-oxo-1,2-dihydropyridin-3-yl)phenoxy]methyl}cyclohexyl]ethanesulfonamide] |
| 95 | CCS(=O)(=O)N[C@H]1CCOC[C@@H]1COc1ccc(-c2ccc(C#N)cn2)cc1 [Example 297, N-[(3R,4S)-3-{[4-(5-cyanopyridin-2-yl)phenoxy]methyl}tetrahydro-2H-pyran-4-yl]ethanesulfonamide] |
| 78 | CCS(=O)(=O)N[C@@H]1CCCC[C@H]1COc1ccc(CCC#N)cc1 (relative stereo) [Example 50, trans-N-[2-{[4-(2-cyanoethyl)phenoxy]methyl}cyclohexyl] ethanesulfonamide] |
| 70 | CCS(=O)(=O)N[C@H]1CCOC[C@@H]1COc1ccc(-c2ccc(C(F)(F)F)cn2)cc1 (racemic) [Example 351, N-[(3RS,4SR)-3-({4-[5-(trifluoromethyl)pyridin-2-yl]phenoxy}methyl)tetrahydro-2H-pyran-4-yl]ethanesulfonamide rac] |
| 104 | O=S(=O)(N[C@H]1COCC[C@@H]1COc1ccc(-c2ccc(F)cn2)cc1F)C1CC1 [Example 264, N-[(3R,4S)-4-{[2-fluoro-4-(5-fluoropyridin-2-yl)phenoxy]methyl}tetrahydro-2H-pyran-3-yl]cyclopropanesulfonamide] |
| 79 | CCS(=O)(=O)N[C@H]1CCCC[C@@H]1COc1ccc(C(C)C)cc1 (relative stereo) [Example 8, trans-N-[2-{[4-(1-methylethyl)phenoxy]methyl}cyclohexyl]ethanesulfonamide] |
| 92 | CCS(=O)(=O)N[C@H]1CCOC[C@@H]1COc1ccc(-n2cc(C)cn2)cc1 (relative stereo) [Example 134, trans-N-[3-{[4-(4-methyl-1H-pyrazol-1-yl)phenoxy]methyl}tetrahydro-2H-pyran-4-yl]ethanesulfonamide] |
| 98 | CS(=O)(=O)N[C@H]1COCC[C@@H]1COc1ccc(-c2ncc(F)cn2)cc1 [Example 283, N-[(3R,4S)-4-{[4-(5-fluoropyrimidin-2-yl)phenoxy]methyl}tetrahydro-2H-pyran-3-yl]methanesulfonamide] |
| 94 | CCS(=O)(=O)N[C@H]1CCCO[C@@H]1COc1ccc(-c2ncc(F)cn2)cc1 [Example 399, 1,5-anhydro-2,3,4-trideoxy-4-[(ethylsulfonyl)amino]-6-O-[4-(5-fluoropyrimidin-2-yl)phenyl]-D-erythro-hexitol] |
| 38 | CS(=O)(=O)N[C@H]1C[C@H]2CC[C@H](O2)[C@@H]1COc1ccc(-c2ccc(C#N)cn2)cc1 (mixture of isomers) [Example 508, N-((1S,2SR,3SR,5R)-2-((4-(5-cyanopyridin-2-yl)phenoxy)methyl)-8-oxabicyclo[3.2.1]oct-3-yl)methanesulfonamide] |
| 91 | CCS(=O)(=O)N[C@H]1CCOC[C@@H]1COc1ccc(C2CC2)cc1 (relative stereo) [Example 7, trans-N-{3-[(4-cyclopropylphenoxy)methyl]tetrahydro-2H-pyran-4-yl}ethanesulfonamide] |
| 91 | CCS(=O)(=O)N[C@H]1CCOC[C@@H]1COc1ccc(-c2cccnc2C)cc1 (racemic) [Example 322, N-[(3RS,4SR)-3-{[4-(2-methylpyridin-3-yl)phenoxy]methyl}tetrahydro-2H-pyran-4-yl]ethanesulfonamide] |
| 96 | CS(=O)(=O)N[C@H]1CCOC[C@@H]1COc1ccc(-n2cccn2)c(F)c1F [Example 425, N-[(3R,4S)-3-{[2,3-difluoro-4-(1H-pyrazol-1-yl)phenoxy]methyl}tetrahydro-2H-pyran-4-yl]methanesulfonamide hydrochloride] |
| 91 | O=S(=O)(N[C@H]1CCOC[C@@H]1COc1ccc(-c2ncc(Cl)cc2F)cc1)C1CC1 [Example 256, N-[(3R,4S)-3-{[4-(5-chloro-3-fluoropyridin-2-yl)phenoxy]methyl}tetrahydro-2H-pyran-4-yl]cyclopropanesulfonamide] |
| 76 | CS(=O)(=O)N[C@H]1CCCO[C@@H]1COc1ccc(-c2ccc(C#N)cn2)cc1 (racemic) [Example 164, 1,5-anhydro-6-O-[4-(5-cyanopyridin-2-yl)phenyl]-2,3,4-trideoxy-4-[(methylsulfonyl)amino]-DL-erythro-hexitol] |
| 85 | CCS(=O)(=O)N[C@H]1CCOC[C@@H]1COc1ccc(C(C)=O)cc1F (relative stereo) [Example 136, trans-N-{3-[(4-acetyl-2-fluorophenoxy)methyl]tetrahydro-2H-pyran-4-yl}ethanesulfonamide] |
| 82 | CS(=O)(=O)N[C@H]1CCC(F)(F)C[C@@H]1COc1ccc(-c2ccc(C#N)cn2)cc1 (racemic) [Example 260, N-[(1SR,2SR)-2-{[4-(5-cyanopyridin-2-yl)phenoxy]methyl}-4,4-difluorocyclohexyl]methanesulfonamide] |
| 91 | CCS(=O)(=O)N[C@H]1CCOC[C@@H]1COc1ccc(-c2ccccn2)cc1 (relative stereo) [Example 137, trans-N-{3-[(4-pyridin-2-ylphenoxy)methyl]tetrahydro-2H-pyran-4-yl}ethanesulfonamide] |
| 68 | CS(=O)(=O)N[C@H]1CCOC[C@@H]1COc1ccc(-c2ccc(F)cn2)c(F)c1 (single isomer, unassigned) [Example 477, N-[(3R,4S)-3-{[3-fluoro-4-(5-fluoropyridin-2-yl)phenoxy]methyl}tetrahydro-2H-pyran-4-yl]methanesulfonamide or N-[(3S,4R)-3-{[3-fluoro-4-(5-fluoropyridin-2-yl)phenoxy]methyl}tetrahydro-2H-pyran-4-yl]methanesulfonamide] |
| 65 | CS(=O)(=O)N[C@H]1COCC[C@@H]1COc1ccc(-c2ccc(Cl)cn2)cc1 [Example 205, N-[(3R,4S)-4-{[4-(5-chloropyridin-2-yl)phenoxy]methyl}tetrahydro-2H-pyran-3-yl]methanesulfonamide] |
| 59 | CS(=O)(=O)N[C@@H]1CCOC[C@H]1COc1ccc(-c2ncc(Cl)cc2F)cc1 (single isomer, unassigned) [Example 382, N-[(3S,4R)-3-{[4-(5-chloro-3-fluoropyridin-2-yl)phenoxy]methyl}tetrahydro-2H-pyran-4-yl]methanesulfonamide or N-[(3R,4S)-3-{[4-(5-chloro-3-fluoropyridin-2-yl)phenoxy]methyl}tetrahydro-2H-pyran-4-yl]methanesulfonamide] |
